Test [1] concerns ATXN3Q81.Luc fusion protein. The test can be described thus: Confirmation dose-response, ATXN3 levels by immunoblotting. To be noted: 293.ATXN3Q81Luc cells. Format: cell-based, human. From the text: Full-length ATXN3 (Accession number ABS29269) carrying either a normal or an expanded polyQ tract (Q26 or Q81) was subcloned in the vector pcDNA3.1 FLAG.firefly Luciferase. The mammalian expression plasmids pcDNA.FLAG.ATXN3Q26.Luc and pcDNA.FLAG.ATXN3Q81.Luc were confirmed by sequencing and shown to express N-terminal FLAG-tagged ATXN3Q26 or ATXN3Q81 fused with firefly Luciferase (Luc), respectively. These neomycin-resistant plasmids were transfected into HEK293 cells using Lipofectamine LTX (Invitrogen) during four hours, after which medium was replaced by growth medium (DMEM/10% fetal bovine serum (FBS)/1% penicillin/streptomycin (PS)). […] After one month of passage in selection medium, stably transfected clones for each cell line (293.ATXN3Q26Luc and 293.ATXN3Q81Luc) were pooled and frozen in liquid nitrogen. Stably transfected cell lines were maintained in selection medium except during treatment with specific compounds that were diluted in growth medium.
Protein lysates from cell cultures, mouse brain slices or mouse brains were obtained by lysis in RIPA buffer containing protease inhibitors (Complete, Roche Diagnostics), followed by sonication and centrifugation. The supernatants (soluble protein fractions) were collected, total protein concentration was determined using the BCA method (Pierce) and then stored at −80° C. Total proteins (50 μg from cell and slice cultures or 75 μg from brain regions of mice) were resolved in 10% SDS-PAGE gels, and corresponding PVDF membranes were incubated overnight at 4° C. with primary antibodies: mouse anti-ATXN3 (1H9) (1:2000; MAB5360, Millipore), goat anti-Luciferase (1:500; G7451, Promega), mouse anti-FLAG (M5) (1:500; IB13091, Sigma), rabbit anti-LC3 (1:500; PM036, MBL International Corporation), mouse anti-HSP90β (1:1000; ADI-SPA842, Enzo Life Sciences), rabbit anti-HSP90α (1:1000; ab2928, Abcam), mouse anti-HSP70 (1:500; SPA810, Enzo Life Sciences), rabbit anti-HSP40 (1:1000; #4868, Cell Signaling), rabbit anti-HSP25 (1:1000; ADI-SPA801, Enzo Life Sciences), rabbit anti-HSF1 (1:1000, ADI-SPA-901, Enzo Life Sciences), rabbit anti-ubiquitin (1:1000, Z 0458, Dako), rabbit anti-RAD23A (1:5000; TA307264, Origene), rabbit anti-RAD23B (1:2000; A302-306A, Bethyl Labs), rabbit anti-α-Tubulin (11H10) (1:10000; #2125, Cell Signaling), and mouse anti-GAPDH (1:1000; MAB374, Millipore). Pellets corresponding to insoluble protein fractions were resuspended in 100 μL of Laemmli buffer 2× and boiled for 10 min. Insoluble proteins were then quantified, and 100 μg were loaded in a filter trap assay apparatus and transferred to a nitrocellulose membrane (0.45 μm pore) that was incubated overnight with rabbit anti-MJD antibody (1:5000) at 4° C. Bound primary antibodies were visualized by incubation with a peroxidase-conjugated anti-mouse or anti-rabbit secondary antibody (1:10000; Jackson Immuno Research Laboratories) followed by treatment with the ECL-plus reagent (Western Lighting, PerkinElmer) and exposure to autoradiography films. Band intensity was quantified by densitometry using ImageJ.
(A western blot detects proteins with antibodies after separation by electrophoresis.)

The next test deals with mouse Atxn3. Description: Organotypic brain slice cultures from YACMJD84.2 (Q84) mice, immunoblotting. Format: cell-based. To be noted: sagittal brain slices treated for 48 hours, cerebellum and brainstem. The procedure: (§1) Nine slices per brain were used in each set of cultures. […] After 48 hours of incubation at 37° C./5% CO2, brain slices were assessed for ATXN3 levels by immunoblotting or immunofluorescence and for cell viability. For immunoblotting, each slice was macrodissected into separate cerebellum and brainstem that were immediately frozen at −80° C. in 80 μL and 150 μL of cold RIPA buffer containing protease inhibitors (Complete, Roche Diagnostics), respectively. Cell viability was assessed on treated slices by incubation in propidium iodide (PI) 1 μg/mL in culture medium for 1 hour. Slices were then mounted in PROLONG Gold Antifade Reagent (Invitrogen) and imaged using a FV500 Olympus confocal microscope.
Protein lysates from cell cultures, mouse brain slices or mouse brains were obtained by lysis in RIPA buffer containing protease inhibitors (Complete, Roche Diagnostics), followed by sonication and centrifugation. The supernatants (soluble protein fractions) were collected, total protein concentration was determined using the BCA method (Pierce) and then stored at −80° C. […] Insoluble proteins were then quantified, and 100 μg were loaded in a filter trap assay apparatus and transferred to a nitrocellulose membrane (0.45 μm pore) that was incubated overnight with rabbit anti-MJD antibody (1:5000) at 4° C. […] Band intensity was quantified by densitometry using ImageJ. […]

The next test deals with human mutant ATXN3Q84. Type of test: cell-based. To be noted: sagittal brain slices treated for 48 hours, cerebellum and brainstem. Here is the method:
as §1
Protein lysates from cell cultures, mouse brain slices or mouse brains were obtained by lysis in RIPA buffer containing protease inhibitors (Complete, Roche Diagnostics), followed by sonication and centrifugation. The supernatants (soluble protein fractions) were collected, total protein concentration was determined using the BCA method (Pierce) and then stored at −80° C. […] Pellets corresponding to insoluble protein fractions were resuspended in 100 μL of Laemmli buffer 2× and boiled for 10 min. Insoluble proteins were then quantified, and 100 μg were loaded in a filter trap assay apparatus and transferred to a nitrocellulose membrane (0.45 μm pore) that was incubated overnight with rabbit anti-MJD antibody (1:5000) at 4° C. Bound primary antibodies were visualized by incubation with a peroxidase-conjugated anti-mouse or anti-rabbit secondary antibody (1:10000; Jackson Immuno Research Laboratories) followed by treatment with the ECL-plus reagent (Western Lighting, PerkinElmer) and exposure to autoradiography films. Band intensity was quantified by densitometry using ImageJ.
To assess the efficacy of the five compounds to reduce ATXN3 levels in the mammalian brain, secondary screens in organotypic brain slice cultures derived from hemizygous YACMJD84.2 (Q84) transgenic mice were performed.

In the case of `Cc1c(C(=O)NN2CCCCC2)nn(-c2ccc(Cl)cc2Cl)c1-c1ccc(I)cc1` [AM251], the “levels of ATXN3Q81.Luc fusion protein” value in test [1] is given as “confirmed to decrease levels of ATXN3Q81.Luc fusion protein”.

For the compound `CC[C@@H](C(=O)[C@@H](C)[C@@H](O)[C@H](C)[C@@H]1O[C@@H]([C@@H](CC)C(=O)O)CC[C@@H]1C)[C@H]1O[C@]2(C=C[C@@H](O)[C@]3(CC[C@@](C)([C@H]4CC[C@](O)(CC)[C@H](C)O4)O3)O2)[C@H](C)C[C@@H]1C` [salinomycin sodium], the “levels of mouse Atxn3” value in the test with mouse Atxn3 is “reduced levels”. The “levels of human mutant ATXN3Q84” value with human mutant ATXN3Q84 is reported as “reduced levels”. Besides, the “levels of ATXN3Q81.Luc fusion protein” value in test [1] is listed as “confirmed to decrease levels of ATXN3Q81.Luc fusion protein”.

Take `Clc1ccccc1C(c1ccccc1)(c1ccccc1)n1ccnc1` [clotrimazole]: in the test with human mutant ATXN3Q84, the “levels of human mutant ATXN3Q84” value is recorded as “did not alter ATXN3 levels”. Also, the “levels of ATXN3Q81.Luc fusion protein” value in test [1] is on record as “confirmed to decrease levels of ATXN3Q81.Luc fusion protein”.

Regarding `CC#C[C@]1(O)CC[C@H]2[C@@H]3CCC4=CC(=O)CCC4=C3[C@@H](c3ccc(N(C)C)cc3)C[C@@]21C` [mifepristone], the “levels of human mutant ATXN3Q84” value with human mutant ATXN3Q84 is given as “did not alter ATXN3 levels”. The “levels of ATXN3Q81.Luc fusion protein” value in test [1] is listed as “confirmed to decrease levels of ATXN3Q81.Luc fusion protein”.

The values above are taken from patent US20190070174A1, “METHODS OF TREATING NEURODEGENERATIVE DISEASES” (priority 2016, published 2019).
